This note sets out measurements from ChEMBL document CHEMBL4613222 (Bioorg Med Chem, 2020).

Active and inactive are the calls of the source. No cut-off for these calls is given here.

Experiment [1] has as its system HCT-116. Kind of experiment: Down regulation of NFKappaB1 gene expression in human HCT116 cells at 35 uM under 2 Gy irradiation by RT-PCR analysis. The class given is functional, cell-based.
Experiment [2] relates to HCT-116. Briefly: Down regulation of NFKappaB1 gene expression in human HCT116 cells at 9.5 uM by RT-PCR analysis relative to control. It is filed as functional.
Experiment [3] concerns HCT-116. Kind of experiment: Effect on CCND1 gene expression in human HCT116 cells at 9.5 uM in presence of 2 Gy irradiation by RT-PCR analysis. It is filed as functional, cell-based.
The subject of experiment [4] is HCT-116. Briefly: Antiproliferative activity against human HCT116 cells assessed as reduction in cell viability after 48 hrs by MTT assay. The class given is functional, cell-based. The conditions noted are these: HCT-116, 48 h. (In general: Tetrazolium dyes change colour on reduction, which living cells bring about.)
The subject of experiment [5] is HCT-116. Briefly: Down regulation of CCND1 gene expression in human HCT116 cells at 9.5 uM in presence of 2 Gy irradiation by RT-PCR analysis. It is filed as functional, cell-based.
The test system of experiment [6] is HCT-116. Kind of experiment: Radiosensitizer activity in human HCT116 cells assessed as reduction in cell survival at 4.75 uM incubated for 48 hrs under 2 to 6 Gy irradiation and measured after 7 days by crystal violet staining based by clonogenic assay. It is filed as functional.

What is called IC50 is the point on the concentration scale where inhibition reaches its midpoint. `C[C@H]1[C@H](C)CC[C@]2(C(=O)O)CC[C@]3(C)C(=CC[C@@H]4[C@@]5(C)CC[C@H](O)C(C)(C)[C@@H]5CC[C@]43C)[C@H]12` [URSOLIC ACID]: the result in the experiment on HCT-116 [1], with HCT-116 [5] and with HCT-116 [6] was Active. In addition, the “fold change (FC)” value in the experiment on HCT-116 [2] is given as -7.05. Also, in the experiment on HCT-116 [3], the result was inactive. In the experiment on HCT-116 [4], the IC50 was found to be 19 µM.
